Literature values as cited in PMC5983471 (PLoS ONE, 2018).
Like-named read-outs stand apart in the source and are kept apart here.

Tests used:
[1] = set-up: method as in FDA prescribing information; conditions: ref FDA prescribing information, cited from earlier work
[2] = set-up: method as in FDA prescribing information; conditions: healthy volunteers; ref FDA prescribing information; cited from earlier work
[3] = system: plasma proteins, primarily albumin; set-up: method as in FDA prescribing information; conditions: ref FDA prescribing information; cited from earlier work
[4] = set-up: method as in FDA prescribing information; conditions: single oral 14C-enzalutamide 160 mg; ref FDA prescribing information; cited from earlier work
[5] = ref FDA prescribing information; cited from earlier work
CYP2C8 = system: CYP2C8; set-up: method as in FDA prescribing information; conditions: healthy volunteers; ref FDA prescribing information; cited from earlier work
CYP3A4 [6] = system: CYP3A4; set-up: method as in FDA prescribing information; conditions: healthy volunteers; ref FDA prescribing information; cited from earlier work
CYP3A4 [7] = system: CYP3A4; set-up: method as in FDA prescribing information; conditions: ref FDA prescribing information, cited from earlier work
CYP2C9 = system: CYP2C9; set-up: method as in FDA prescribing information; conditions: ref FDA prescribing information, cited from earlier work
CYP2C19 = system: CYP2C19; set-up: method as in FDA prescribing information; conditions: ref FDA prescribing information, cited from earlier work
human CYP2C8 and CYP3A4 = system: human CYP2C8 and CYP3A4; set-up: method as in FDA prescribing information; conditions: in vitro; ref FDA prescribing information; cited from earlier work
[8] = system: castration-resistant prostate cancer; conditions: ref 59 (S1 Protocol), cited from earlier work
CRPC [9] = conditions: cited from earlier work
CRPC [10] = conditions: cited from earlier work; remark: listed apart in the source
[11] = AFFIRM, Enzalutamide (N=800), ref Scher et al, 2012
[12] = PREVAIL, Enzalutamide (N=871), ref Beer et al, 2014

**Q.** Which “plasma mean Cmax at steady state” value ([1]; 160 mg daily oral) does the source give for `CC1(C)C(=O)N(c2ccc(C#N)c(C(F)(F)F)c2)C(=S)N1c1ccc(C(N)=O)c(F)c1` [N-desmethyl enzalutamide] here?
**A.** 12.7 µg/mL

**Q.** What about the “plasma mean predose trough at steady state” value ([1]; 160 mg daily oral) of the same compound?
**A.** 13.0 µg/mL

**Q.** What about the “effect of a high-fat meal on AUC” value [2] of the same compound?
**A.** did not alter

**Q.** What about the “bound to plasma proteins” value [3] of the same compound?
**A.** 95%

**Q.** What about the “% of dose recovered in feces as this species” value [4] of the same compound?
**A.** 1%

**Q.** Which solubility in water [5] does the source give for `CNC(=O)c1ccc(N2C(=S)N(c3ccc(C#N)c(C(F)(F)F)c3)C(=O)C2(C)C)cc1F` [enzalutamide, 4-(3-[4-cyano-3-(trifluoromethyl)phenyl]-5,5dimethyl-4-oxo-2-sulfanylideneimidazolidin-1-yl)-2-fluoro-N-methylbenzamide] here?
**A.** practically insoluble

**Q.** And the “plasma mean Cmax at steady state” value ([1]; 160 mg daily oral)?
**A.** 16.6 µg/mL

**Q.** And the “mean apparent volume of distribution (V/F)” value ([1]; single oral dose, patients, 29% CV)?
**A.** 110 L

**Q.** What about the “mean apparent clearance (CL/F)” value ([1]; single oral dose, patients) of the same compound?
**A.** 0.56 L/h

**Q.** And the “effect of a high-fat meal on AUC” value [2]?
**A.** did not alter

**Q.** What about the “effect of gemfibrozil on composite AUC of enzalutamide plus N-desmethyl enzalutamide” value (CYP2C8) of the same compound?
**A.** increased

**Q.** And the “increase of composite AUC of enzalutamide plus N-desmethyl enzalutamide by itraconazole” value (CYP3A4 [6])?
**A.** 1.3 fold

**Q.** What about the “effect on plasma exposure to midazolam (CYP3A4 substrate)” value (CYP3A4 [7]; at steady state) of the same compound?
**A.** reduced

**Q.** What about the CYP3A4 inducer strength (CYP3A4 [7]; in humans) of the same compound?
**A.** strong

**Q.** And the “effect on plasma exposure to warfarin (CYP2C9 substrate)” value (CYP2C9; at steady state)?
**A.** reduced

**Q.** What about the CYP2C9 inducer strength (CYP2C9; in humans) of the same compound?
**A.** moderate

**Q.** And the “effect on plasma exposure to omeprazole (CYP2C19 substrate)” value (CYP2C19; at steady state)?
**A.** reduced

**Q.** What about the CYP2C19 inducer strength (CYP2C19; in humans) of the same compound?
**A.** moderate

**Q.** What about the “enzymes responsible for the metabolism” value (human CYP2C8 and CYP3A4) of the same compound?
**A.** CYP2C8 and CYP3A4

**Q.** What about the “PSA response rate (≥50% PSA declines)” value ([8]; 30 mg to 600 mg by mouth daily, 78 out of 140 subjects) of the same compound?
**A.** 56%

**Q.** And the “patients who discontinued treatment for an AE” value ([8]; daily dose ≤240 mg)?
**A.** 1/87

**Q.** What about the “patients who discontinued treatment for an AE” value ([8]; doses ≥360 mg) of the same compound?
**A.** 7/53

**Q.** And the “grade 3-4 AE: anemia” value ([8]; overall)?
**A.** 3%

**Q.** What about the “grade 3-4 AE: arthralgia” value ([8]; overall) of the same compound?
**A.** 2%

**Q.** What about the “grade 3-4 AE: asthenia” value ([8]; overall) of the same compound?
**A.** 2%

**Q.** What about the “grade 3-4 AE: fatigue” value ([8]; overall) of the same compound?
**A.** 11%

**Q.** And the “grade 3-4 AE: seizures” value ([8]; overall)?
**A.** 2%

**Q.** And the “mild (grade 2) AE: anorexia” value ([8]; overall)?
**A.** 5.7%

**Q.** And the “mild (grade 2) AE: back pain” value ([8]; overall)?
**A.** 5.7%

**Q.** What about the “mild (grade 2) AE: dyspnea” value ([8]; overall) of the same compound?
**A.** 7.9%

**Q.** And the “mild (grade 2) AE: fatigue” value ([8]; overall)?
**A.** 27.1%

**Q.** What about the “mild (grade 2) AE: nausea” value ([8]; overall) of the same compound?
**A.** 8.6%

**Q.** And the maximum tolerated dose [8]?
**A.** 240 mg daily

**Q.** And the “HR for death vs placebo” value (CRPC [9]; 95% CI 0.53 to 0.75, P<0.001, ref 4 (S1 Protocol))?
**A.** 0.63

**Q.** What about the “Abnormal liver function testing, Grade 3-4 (%)” value (CRPC [9]; [11]) of the same compound?
**A.** 0.4%

**Q.** And the “Arthralgias / musculoskeletal pain, Grade 3-4 (%)” value (CRPC [9]; [11])?
**A.** 1%

**Q.** And the “Diarrhea, Grade 3-4 (%)” value (CRPC [9]; [11])?
**A.** 1%

**Q.** And the “Fatigue, Grade 3-4 (%)” value (CRPC [9]; [11])?
**A.** 6%

**Q.** And the “Headache, Grade 3-4 (%)” value (CRPC [9]; [11])?
**A.** 0.8%

**Q.** And the “Hot flashes, Grade 3-4 (%)” value (CRPC [9]; [11])?
**A.** 0%

**Q.** And the “Seizure, Grade 3-4 (%)” value (CRPC [9]; [11])?
**A.** 0.6%

**Q.** What about the “median OS” value (CRPC [9]; enzalutamide 160 mg daily (N=800), ref 4 (S1 Protocol)) of the same compound?
**A.** 18.4 months

**Q.** And the “rate of grade 3 or higher AEs” value (CRPC [9]; enzalutamide 160 mg daily, ref 4 (S1 Protocol))?
**A.** 45.3%

**Q.** And the “HR for death vs placebo” value (CRPC [10]; 95% CI 0.60 to 0.84, P<0.0001, ref 1 (S1 Protocol))?
**A.** 0.706

**Q.** And the “Abnormal liver function testing, Grade 3-4 (%)” value (CRPC [10]; [12])?
**A.** 0.2%

**Q.** And the “Arthralgias / musculoskeletal pain, Grade 3-4 (%)” value (CRPC [10]; [12])?
**A.** 1.4%

**Q.** And the “Back pain, Grade 3-4 (%)” value (CRPC [10]; [12])?
**A.** 2.5%

**Q.** And the “Constipation, Grade 3-4 (%)” value (CRPC [10]; [12])?
**A.** 0.5%

**Q.** What about the “Fatigue, Grade 3-4 (%)” value (CRPC [10]; [12]) of the same compound?
**A.** 1.8%

**Q.** What about the “Hypertension, Grade 3-4 (%)” value (CRPC [10]; [12]) of the same compound?
**A.** 6.8%

**Q.** What about the “Seizure, Grade 3-4 (%)” value (CRPC [10]; [12]) of the same compound?
**A.** 0%

**Q.** What about the “median OS” value (CRPC [10]; enzalutamide 160 mg daily (N=871), ref 1 (S1 Protocol)) of the same compound?
**A.** 32.4 months
